Data as given in publication PMC7806715, “Discovery of small molecules targeting the tandem tudor domain of the epigenetic factor UHRF1 using fragment-based ligand discovery” (Scientific Reports, 2021).

Legend:
UHRF1-TTD = biological target: T1, UHRF1-TTD (Homo sapiens, UniProt Q96T88); test: Thermal shift assay (TSA) of TTD; format: binding; conditions: compound at 500 μM; untagged TTD, 150 mM NaCl; mean ± S.D., n=3
T1 construct: Using the isolated His6-TTD (aa 123–283) we performed a thermal shift assay; His6 (N, cleaved yes); made in house; host or cells: Rosetta (DE3) E. coli, pMCSG7
T1 sequence (Q96T88 123-283): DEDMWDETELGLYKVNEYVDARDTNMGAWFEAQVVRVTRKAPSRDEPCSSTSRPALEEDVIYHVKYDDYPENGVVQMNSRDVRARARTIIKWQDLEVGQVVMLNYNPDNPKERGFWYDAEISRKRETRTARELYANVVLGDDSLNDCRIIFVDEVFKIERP
Method: We used three different assays in parallel to screen a ~ 2300-fragment library to identify hits that bind to TTD or inhibit its activities. The first screening method was a direct binding assay, which generally serves as the basis for most fragment screening. Using the isolated His6-TTD (aa 123–283) we performed a thermal shift assay (TSA) to determine the change in melting temperature upon fragment binding. The change in protein melting temperature (ΔTm) caused by each fragment was calculated by comparison to the DMSO controls on the same plate.
The fragment screen was carried out on LightCycler 480 Multiwell Plates 384 (Roche). The TSA mix contains 0.15 mg/ml of His6-TTD, 10 × of SYPRO Orange dye (ThermoFisher) in the TSA buffer (50 mM sodium phosphate, pH = 7, 300 mM NaCl). During the screen, 5 µl of TSA mix was dispensed into each well, and 100 nl of chemical fragments stock (10 mM in DMSO) was added to each well by pintool using Tecan Freedom Evo liquid handler to make the final compound concentration 200 µM. After 1 h of incubation at room temperature, the increase of fluorescence at 580 nm (excitation 465 nm) during the 20–90 degree melting (0.04 °C/s) was measured by LightCycler 480 Instrument II (Roche). For the fragment screen, on seven of the library plates there were 32-wells of DMSO control, while there were 8-wells of DMSO control in the last plate. […] Using un-tagged TTD for TSA provide closer resemblance to the native state of TTD. The lower salt concentration (150 mM NaCl) also allowed better comparison across three different assays during the dose-dependent SAR studies as both AlphaScreen and TR-FRET assay also use buffers containing 150 mM NaCl.

[1] = biological target: T2, TTD-PHD RR295/296AA mutant vs. H3K9me3 peptide (Homo sapiens, UniProt Q96T88, R295A/R296A); test: TR-FRET assay: TTD-PHD RR295/296AA mutant binding to H3K9me3 peptide; format: biochemical; conditions: 2.5 mM 2,4-lutidine
T2 construct: made in house; host or cells: E. coli (host printed for TTD-PHD in general: Rosetta (DE3))
T2 sequence (Q96T88 123-366 R295A/R296A): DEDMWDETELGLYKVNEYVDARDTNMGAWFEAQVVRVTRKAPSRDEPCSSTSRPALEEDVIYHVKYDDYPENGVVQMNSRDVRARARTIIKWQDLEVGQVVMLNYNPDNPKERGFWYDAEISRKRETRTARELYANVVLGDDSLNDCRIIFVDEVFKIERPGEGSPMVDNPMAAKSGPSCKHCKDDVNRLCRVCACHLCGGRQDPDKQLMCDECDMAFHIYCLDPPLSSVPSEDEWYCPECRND
Method: The fragment screen was carried out on low volume 384-well white plates (Corning 4512) and the assay was performed at room temperature. […] After 1 h of incubation, the fluorescent signals at 665 nm and 620 nm of each plate were measured by the Tecan Infinite M1000 plate reader (excitation 340 nm, 60 μs lag time, and 500 μs integration time) and the TR-FRET signal was calculated by the ratio of 665 nm/620 nm fluorescent signal. For the fragment screen, on seven of the library plates there were 32-wells of DMSO control, while there were 8-wells of DMSO control in the last plate. […] The only difference was that the final concentration of […] assay, while the final concentration of His6-UHRF1-FL was 200 nM and biotin-H3K9me3 peptide was 100 nM for the His6-UHRF1-FL TR-FRET assay. The buffer pH was 7.5 for the His6-TTD-PHD and His6-UHRF1-FL assays.

[2] = biological target: His-USP7-UBL1/2 (control protein) (Homo sapiens, UniProt Q93009); test: Intrinsic tryptophan fluorescence of control protein; format: binding; conditions: 3.2 µM protein
His-USP7-UBL1/2 (control protein), sequence (Q93009 560-776 limits assumed): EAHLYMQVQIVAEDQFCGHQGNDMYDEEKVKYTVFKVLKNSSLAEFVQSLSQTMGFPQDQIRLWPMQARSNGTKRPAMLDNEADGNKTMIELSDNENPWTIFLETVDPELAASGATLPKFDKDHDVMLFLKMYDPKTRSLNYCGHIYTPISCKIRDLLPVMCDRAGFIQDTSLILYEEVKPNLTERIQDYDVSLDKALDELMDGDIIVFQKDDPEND

Cc1ccnc(C)c1 [2,4-lutidine]
ΔTm at 500 µM (UHRF1-TTD): 2.04 ± 0.01 °C
inhibition of binding to H3K9me3 peptide [1]: 57.6%
effect on tryptophan fluorescence of control protein (in words) [2]: did not inhibit
